Laboratory results reported in PubChem BioAssay (NCI).
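Compound exposure: 48 hours, 5 concentrations, 96-well plates. GI50 = concentration required for 50% inhibition of growth. At the TGI there is no net growth.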 Where a SMILES comes first, the peptide text is derived from it. [ ]: non-standard residue; d: D form.

Key:
Assay in all cases: growth of human tumour cells (NCI), 48 h
[1] = test system: SW-620 colon
[2] = test system: OVCAR-5 ovarian
[3] = test system: CCRF-CEM leukemia
[4] = test system: HL-60(TB) leukemia
[5] = test system: SF-295 CNS
[6] = test system: SK-MEL-5 melanoma
[7] = test system: NCI-H23 lung
[8] = test system: UACC-62 melanoma
[9] = test system: HOP-18 NSCLC
[10] = test system: DLD-1 colon
[11] = test system: LXFL 529 NSCLC

Compound | GI50 [1] [µM] | TGI [1] [µM] | GI50 [2] [µM] | TGI [2] [µM] | GI50 [3] [µM] | TGI [3] [µM] | GI50 [4] [µM] | TGI [4] [µM] | GI50 [5] [µM] | TGI [5] [µM] | GI50 [6] [µM] | TGI [6] [µM] | GI50 [7] [µM] | TGI [7] [µM] | GI50 [8] [µM] | TGI [8] [µM] | TGI [9] [µM] | TGI [10] [µM] | TGI [11] [µM]
CCSc1nc(N)c2cnn(CC)c2n1 | 3.8 | 18.2 | 27.1 | > 100 | 3.58 | 10.8 | 2.33 | 32.5 | 8.02 | > 100 | 2.58 | 8.05 | 10.3 | 22 | 4.8 | 24.5 |  |  | 
CCC(C)N1CN(c2ccccc2)C2(CCN(CCCC3(c4ccc(F)cc4)OCCO3)CC2)C1=O (centres undefined) |  | 28.8 |  | 22.4 |  | 15.3 |  | 23 |  | 10.6 |  | 8.24 |  | 18.1 |  | > 55.2 |  |  | 
NC1=Nc2ccccc2Sc2ccccc21 |  | > 100 |  | > 100 |  | > 100 |  | > 100 |  | > 100 |  | > 100 |  | > 100 |  | > 100 | > 100 | > 100 | 
Cc1cc2nc(-c3ccc(O)c(O)c3)n(Cc3ccc(O)c(O)c3)c2cc1C | 24.7 | > 100 | > 100 | > 100 | 4.23 | 25.5 | 9.33 | 47.4 | 20.2 | 66.3 | 17.5 | 39.9 | 35.1 | > 100 | 19 | 41.1 |  |  | 
CCOC(=O)CN1C(=O)C(=O)N(c2ccc(OC)c3ccccc23)C1=O |  | > 100 |  | > 100 |  | > 100 |  | > 100 |  | > 100 |  | > 100 |  | > 100 |  | > 100 |  |  | 
N=C1C=C(N)C(=O)c2ccccc21 | 0.22 | 0.509 | 0.184 | 0.373 | 0.308 | > 100 | 0.207 | 0.606 | 0.639 | 1.53 | 0.174 | 0.319 | 0.219 | 0.61 | 0.181 | 0.352 |  |  | 
CN1CCN(c2nc3cc(F)ccc3n3cccc23)CC1 |  | > 100 |  | > 100 |  | > 100 |  | > 100 |  | 52.9 |  | 38 |  | > 100 |  | 80.4 |  |  | 
CC[C@@H](C(=O)[C@@H](C)[C@@H](O)[C@H](C)[C@@H]1O[C@@H]([C@@H](CC)C(=O)O)CC[C@@H]1C)[C@H]1O[C@]2(C=C[C@@H](O)[C@]3(CC[C@@](C)([C@H]4CC[C@](O)(CC)[C@H](C)O4)O3)O2)[C@H](C)C[C@@H]1C | 1.56 | 12.6 | 6.61 | 80.5 | 0.255 | 12.7 | 0.14 | 0.815 | 0.447 | 7.71 | 0.401 | 1.61 | 0.528 | 11.4 | 1.04 | 2.33 |  |  | 
CCOc1ccccc1N=Cc1c2ccccc2cc2ccccc12 |  | > 100 |  | 68.9 |  | > 58.1 |  | 53 |  | > 100 |  | > 83.8 |  | 45.9 |  | > 100 |  |  | 
CSc1nc2ccc(C)cc2cc1/C=C1/C=C(c2ccccc2)NC1=O | 2.62 | 92.1 | 19.3 | > 100 | 26.4 | > 100 | > 100 | > 100 | 1.44 | 15 | 21.3 | > 100 | 10 | > 100 | 10.8 | 48.2 |  |  | 
O=C1CC2OCC=C3CN4CCC5(C(=O)O)C(N1)C2C3CC45 (centres undefined) |  | > 100 |  | > 100 |  | > 100 |  | > 100 |  | > 100 |  | > 100 |  | > 100 |  | > 100 |  |  | 
CCCCCCCCc1cc(O)ccc1O | 21.6 | 46.1 | 19.9 | 42.8 | 4.09 | 33.3 | 3.53 | 16.2 | 20.7 | 49 | 17 | 30.7 | 17.3 | 42 | 13.6 | 26.6 |  |  | 
CCN(CC)CCNc1ccc([N+](=O)[O-])c2nc3ccc(OC)cc3c(N)c12 |  | 0.772 |  | 3.15 |  | 1.31 |  | 0.246 |  | 2.96 |  | 2.22 |  | 3.53 |  | 3.61 |  |  | 
COc1ccc2c(c1)C=CC1C2CC[C@]2(C)C(NC(=O)/C=C/c3ccc(O)c(O)c3)CCC12 (some centres undefined) | 9.93 | 55.2 | 20.1 | 38.9 | 4.36 | 19.5 | 5.01 | 23.8 | 31.7 | 70.3 | 14.9 | 40.1 | 16.3 | 38.3 | 14.9 | 30.8 |  |  | 
N#CNC1=NCCC(=O)N1CCc1c[nH]c2ccccc12 |  | > 100 |  |  |  | > 100 |  | > 100 |  | > 100 |  | > 100 |  | > 100 |  | > 100 |  | > 100 | > 100
CCOC(=O)N(O)c1ccc(/C=C/c2ccccc2)cc1 | 5.3 | 25.1 | 0.737 | 9.71 | 9.38 | > 93.5 | 8.59 | 40.5 | 2.45 | 22.1 | 3.85 | 14.5 | 5.77 | 37.1 | 0.47 | 3.07 |  |  | 
CSCC[C@H](NC(=O)[C@@H](N)CC(N)=O)C(=O)N[C@@H](Cc1c[nH]c2ccccc12)C(=O)N[C@@H](CCC(N)=O)C(=O)N[C@@H](CCC(=O)O)C(=O)N[C@H](C(=O)NCC(=O)N[C@@H](CCCCN)C(=O)N[C@H](C)C(=O)O)C(C)C (H-NMWQEVGK[dA]-OH) |  | > 100 |  | > 100 |  | > 100 |  | > 100 |  | > 100 |  | > 100 |  | > 100 |  | > 100 |  |  | 
Cc1cn2cc(-c3ccc4c(c3)CC(=O)N4)nc2s1 | 34 | > 100 | > 100 | > 100 | > 100 | > 100 | > 100 | > 100 | > 100 | > 100 | 94 | > 100 | > 100 | > 100 | 33.7 | > 100 |  |  | 
